Source: patent publication US11339171B2, “MDM2 inhibitors” (Gan & Lee Pharmaceuticals, priority 2017, dated 2022)
“And” between values parts separate entries of the source, which are not always exact repeats. Equal entries are not always repeated. Where two headings read alike, the source gives them in different places.

Experiments:
[1] = tested on: human osteosarcoma cell line SJSA-1; assay: Inhibition of proliferation of human osteosarcoma cell line SJSA-1 (DAPI staining, In Cell Analyzer); details: Homo sapiens, SJSA-1, 72 h, read-out: IC50 (nM), inhibitory activity on proliferation of human osteosarcoma cell line SJSA-1, SJSA-1, incubated 72 h
[2] = Pharmacokinetics in ICR mice after intravenous and intragastric administration; type: in vivo; details: for MRT last: read-out: MRT(0-t); for MRT inf: read-out: MRT(0-∞); for Vd: read-out: Vz
Method in brief: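 Compounds were dissolved at 0.5 mg/ml in DMSO/PEG400/HP-β-CD saline vehicle and given to overnight-fasted male ICR mice, 2 mg/kg by vein or 5 mg/kg by gavage (n=3 each). Plasma was then protein-precipitated, assayed by LC-MS/MS, and PK parameters including oral bioavailability were derived.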

MDM2 = molecular target: T1, MDM2 (Homo sapiens, UniProt Q00987); assay: Inhibition test of MDM2-P53 (GST-MDM2, Biotin-P53, Anti-GST-Tb, SA-XL665); type: binding
T1 construct: made in house
Method in brief: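 Binding was measured by TR-FRET with GST-MDM2 at 4 nM final in PBS with 0.1% BSA, 5 mM DTT and 1 mM AEBSF. Compounds were tested as twelve-point 5-fold dilutions and incubated with the detection mix for 90 min at 25 °C with shaking before plate-reader reading and curve fitting.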

[3] = ICR mice, IV 2 mg/kg, individual animal, 2 mg/kg
[4] = ICR mice, PO 5 mg/kg, individual animal, 5 mg/kg
[5] = male, ICR, mouse, plasma, iv, 2 mg/kg, ICR mice, IV 2 mg/kg, individual animal
[6] = male, ICR, mouse, plasma, iv, 2 mg/kg, ICR mice, IV 2 mg/kg, mean of 3 animals
[7] = male, ICR, mouse, plasma, po, 5 mg/kg, ICR mice, PO 5 mg/kg, individual animal
[8] = male, ICR, mouse, plasma, po, 5 mg/kg, ICR mice, PO 5 mg/kg, mean of 3 animals

T1 sequence (Q00987 whole entry): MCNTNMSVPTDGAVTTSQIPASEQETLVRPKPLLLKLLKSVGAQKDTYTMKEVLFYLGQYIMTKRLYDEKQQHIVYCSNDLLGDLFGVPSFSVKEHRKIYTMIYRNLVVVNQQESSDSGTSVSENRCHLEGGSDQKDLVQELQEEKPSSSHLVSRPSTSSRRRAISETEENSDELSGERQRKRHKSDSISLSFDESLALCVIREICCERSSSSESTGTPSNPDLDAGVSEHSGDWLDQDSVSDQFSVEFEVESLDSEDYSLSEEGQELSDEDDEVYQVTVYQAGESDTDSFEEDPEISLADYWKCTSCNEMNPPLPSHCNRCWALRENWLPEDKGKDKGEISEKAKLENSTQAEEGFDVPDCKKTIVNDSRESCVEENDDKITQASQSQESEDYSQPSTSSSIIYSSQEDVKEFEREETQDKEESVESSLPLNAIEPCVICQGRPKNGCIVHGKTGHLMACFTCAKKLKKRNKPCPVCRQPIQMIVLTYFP

Question: With COc1cc(C(C)C)ccc1-c1nc2c(n1C(C)C)[C@@]1(C(=O)Nc3cc(Cl)ccc31)N(c1cc(Cl)ccc1C)C2=O [Example S-32, (S)-6-chloro-5′-(5-chloro-2-methylphenyl)-3′-isopropyl-2′-(4-isopropyl-2-methoxyphenyl)-3′H-spiro[dihydroindole-3,4′-pyrrolo[3,4-d]imidazole]-2,6′(5′H)-dione] as the compound, how does the IC50 [1] read?
Answer: Its IC50 is 10.1 nM.

Question: What about the “AUC(0-t)” value [2, 3] of the same compound?
Answer: The value was 3859.04 ng·h/mL and 4699.29 ng·h/mL.

Question: What about the “AUC(0-∞)” value [2, 3] of the same compound?
Answer: The value was 4004.98 ng·h/mL and 4854.66 ng·h/mL.

Question: What about the CL [2, 3] of the same compound?
Answer: Its CL is 8.323 mL/min/kg and 6.8663 mL/min/kg.

Question: What about the Cmax [2, 3] of the same compound?
Answer: The Cmax was 1902.13 ng/mL and 2766.01 ng/mL.

Question: And the “MRT(0-t)” value [2, 3]?
Answer: The value was 1.29 h and 1.32 h.

Question: What about the “MRT(0-∞)” value [2, 3] of the same compound?
Answer: The value was 1.53 h.

Question: And the Tmax [2, 3]?
Answer: Its Tmax is 0.50 h and 0.08 h and 0.25 h.

Question: What about the Vz [2, 3] of the same compound?
Answer: The Vz was 0.90833 L/kg and 0.7302 L/kg.

Question: And the t1/2 [2, 3]?
Answer: Its t1/2 is 1.26 h and 1.23 h.

Question: What about the “AUC(0-t)” value [2, 4] of the same compound?
Answer: Its value is 10704.89 ng·h/mL and 8458.06 ng·h/mL.

Question: What about the “AUC(0-∞)” value [2, 4] of the same compound?
Answer: The value was 11027.74 ng·h/mL and 9168.53 ng·h/mL.

Question: And the Cmax [2, 4]?
Answer: The Cmax was 1578.70 ng/mL and 3356.31 ng/mL and 2518.33 ng/mL.

Question: And the “MRT(0-t)” value [2, 4]?
Answer: The value was 2.24 h and 2.48 h.

Question: And the “MRT(0-∞)” value [2, 4]?
Answer: Its value is 2.48 h and 3.14 h.

Question: And the t1/2 [2, 4]?
Answer: The t1/2 was 1.51 h and 2.07 h.

Question: What about the AUC(0-inf) [2, 5] of the same compound?
Answer: The AUC(0-inf) was 7630 ng·h/mL.

Question: What about the clearance [2, 5] of the same compound?
Answer: Its clearance is 4.37 mL/min/kg.

Question: What about the AUC(0-t) ([2]; male, ICR, mouse, plasma, iv, 2 mg/kg, ICR mice, IV 2 mg/kg, individual animal, read-out: AUC(0-t)) of the same compound?
Answer: The AUC(0-t) was 7200 ng·h/mL.

Question: What about the Cmax ([2]; male, ICR, mouse, plasma, iv, 2 mg/kg, ICR mice, IV 2 mg/kg, individual animal, read-out: Cmax) of the same compound?
Answer: The Cmax was 2450 ng/mL.

Question: And the MRT last [2, 5]?
Answer: Its MRT last is 1.61 h.

Question: And the MRT inf [2, 5]?
Answer: Its MRT inf is 1.97 h.

Question: And the Vd [2, 5]?
Answer: Its Vd is 0.543 L/kg.

Question: And the half-life ([2]; male, ICR, mouse, plasma, iv, 2 mg/kg, ICR mice, IV 2 mg/kg, individual animal, read-out: t1/2 (converted))?
Answer: Its half-life is 1.44 h.

Question: What about the AUC(0-inf) [2, 6] of the same compound?
Answer: The AUC(0-inf) was 5500 ng·h/mL.

Question: What about the clearance [2, 6] of the same compound?
Answer: The clearance was 6.52 mL/min/kg.

Question: What about the AUC(0-t) ([2]; male, ICR, mouse, plasma, iv, 2 mg/kg, ICR mice, IV 2 mg/kg, mean of 3 animals, read-out: AUC(0-t)) of the same compound?
Answer: Its AUC(0-t) is 5250 ng·h/mL.

Question: And the Cmax ([2]; male, ICR, mouse, plasma, iv, 2 mg/kg, ICR mice, IV 2 mg/kg, mean of 3 animals, read-out: Cmax)?
Answer: The Cmax was 2370 ng/mL.

Question: What about the MRT last [2, 6] of the same compound?
Answer: The MRT last was 1.41 h.

Question: And the MRT inf [2, 6]?
Answer: Its MRT inf is 1.68 h.

Question: What about the Tmax ([2]; male, ICR, mouse, plasma, iv, 2 mg/kg, ICR mice, IV 2 mg/kg, mean of 3 animals, read-out: Tmax) of the same compound?
Answer: Its Tmax is 0.278 h.

Question: What about the Vd [2, 6] of the same compound?
Answer: Its Vd is 0.727 L/kg.

Question: What about the half-life ([2]; male, ICR, mouse, plasma, iv, 2 mg/kg, ICR mice, IV 2 mg/kg, mean of 3 animals, read-out: t1/2 (converted)) of the same compound?
Answer: The half-life was 1.31 h.

Question: What about the AUC(0-inf) [2, 7] of the same compound?
Answer: The AUC(0-inf) was 7100 ng·h/mL.

Question: What about the AUC(0-t) ([2]; male, ICR, mouse, plasma, po, 5 mg/kg, ICR mice, PO 5 mg/kg, individual animal, read-out: AUC(0-t)) of the same compound?
Answer: The AUC(0-t) was 6020 ng·h/mL.

Question: What about the MRT last [2, 7] of the same compound?
Answer: The MRT last was 2.79 h.

Question: And the MRT inf [2, 7]?
Answer: Its MRT inf is 4.22 h.

Question: And the Tmax ([2]; male, ICR, mouse, plasma, po, 5 mg/kg, ICR mice, PO 5 mg/kg, individual animal, read-out: Tmax)?
Answer: Its Tmax is 1 h.

Question: What about the half-life ([2]; male, ICR, mouse, plasma, po, 5 mg/kg, ICR mice, PO 5 mg/kg, individual animal, read-out: t1/2 (converted)) of the same compound?
Answer: The half-life was 2.89 h.

Question: What about the AUC(0-inf) [2, 8] of the same compound?
Answer: The AUC(0-inf) was 9100 ng·h/mL.

Question: What about the AUC(0-t) ([2]; male, ICR, mouse, plasma, po, 5 mg/kg, ICR mice, PO 5 mg/kg, mean of 3 animals, read-out: AUC(0-t)) of the same compound?
Answer: The AUC(0-t) was 8390 ng·h/mL.

Question: What about the Cmax ([2]; male, ICR, mouse, plasma, po, 5 mg/kg, ICR mice, PO 5 mg/kg, mean of 3 animals, read-out: Cmax) of the same compound?
Answer: The Cmax was 2480 ng/mL.

Question: What about the MRT last [2, 8] of the same compound?
Answer: The MRT last was 2.5 h.

Question: And the MRT inf [2, 8]?
Answer: Its MRT inf is 3.28 h.

Question: What about the Tmax ([2]; male, ICR, mouse, plasma, po, 5 mg/kg, ICR mice, PO 5 mg/kg, mean of 3 animals, read-out: Tmax) of the same compound?
Answer: Its Tmax is 1 h.

Question: What about the half-life ([2]; male, ICR, mouse, plasma, po, 5 mg/kg, ICR mice, PO 5 mg/kg, mean of 3 animals, read-out: t1/2 (converted)) of the same compound?
Answer: Its half-life is 2.16 h.

Question: And the AUC(0-t) ([2]; male, ICR, mouse, plasma, po, 5 mg/kg, oral intragastric administration 5 mg/kg, read-out: AUC0-t)?
Answer: The AUC(0-t) was 8390 ng·h/mL.

Question: And the half-life ([2]; male, ICR, mouse, plasma, po, 5 mg/kg, oral intragastric administration 5 mg/kg, read-out: half-life (converted))?
Answer: The half-life was 2.16 h.

Question: What about the bioavailability ([2]; male, mouse, plasma, ICR mice, PO 5 mg/kg vs IV 2 mg/kg, from mean values, read-out: F* (bioavailability)) of the same compound?
Answer: Its bioavailability is 63.9%.

Question: And the IC50 (MDM2)?
Answer: The IC50 was 3.89 nM.
